Source: patent publication US20250051337A1 (priority 2021, published 2025)

Legend:
Caco-2 cell = assay: Caco-2 permeability; type: in vitro ADME; details: Caco-2, classification
Description: (§1) The Caco-2 cell permeability was determined for selected compounds 6, 11, 16, and 23. Permeability is classified as follows: high >10, medium, 1-10, and low ≤1. The efflux ratio is calculated by Papp (B→A/A→B). A compound is a potential transporter substrate if efflux ratio >2.0. Atenolol, Propranolol, and Taxol were used as internal standards. Data is represented as an average of a single experiment preformed in duplicate. Apparent permeability=(Papp).

Caco-2 permeability = type: in vitro ADME; details: human; for Papp B→A: Caco-2; for efflux ratio: Caco-2, Papp (B→A/A→B)
Description: as §1

STK4 = STK4 (Homo sapiens (Human), UniProt Q13043); assay: NanoBRET intracellular kinase assay, STK4; type: cell-based; details: transfected HEK293 cells, 2 h
Description: (§2) Full-length STK3, STK4, and LRRK2 kinase was cloned in-frame with a C-terminal NanoLuc-fusion (Promega: Madison, WI, USA) and the plasmid was transfected into HEK293T cells using FuGENE HD (Promega, E2312). […] After 2 h at 37° C. in a 5% CO2 atmosphere, NanoBRET NanoGlo Substrate+Extra-cellular NanoLuc Inhibitor (Promega, N2540) was added, and filtered luminescence was measured on a PHERAstar plate reader (BMG Labtech; Ortenberg, Germany) equipped with a lumi-nescence filter pair (450 nm BP filter (donor) and 610 nm LP filter (acceptor)).
(§3) This assay measured the apparent affinity of test compounds by competitive displacement of the NanoBRET™ tracer, reversibly bound to a NanoLuc® luciferase-kinase fusion in cells. To evaluate potential off-target activity of the inhibitors, the inhibition of LRRK2 in live cells by the STK3/4 inhibitors compounds described herein were measured. […] A 50 nM tracer and these compounds were added to cells and incubated for 2 h.

STK3 [1] = biological target: T1, STK3 (Homo sapiens (Human), UniProt Q13188); assay: Thermal shift assay (ThermoFluor differential scanning fluorimetry); type: binding; details: for ΔTm at 10 µM: read-out: ΔTm; for Tm shift: Tm of STK3 or STK4, text statement
Description: Temperature-dependent protein unfolding profiles were measured using a Real-Time PCR Mx3005p machine (Stratagene: San Diego, CA, USA). Data evaluation and melting temperature calculation were performed using Protein Thermal Shift™ Software v1.2.
To further evaluate binding of these compounds to STK3/4, differential scanning fluorimetry (protein thermal shift using ThermoFluor technology) assay was used to benchmark the capacity to stabilize the kinase domain. The melting temperature (Tm) of STK3 or STK4 was measured in the presence of vehicle (DMSO) or 6, 11 or 23.

in vivo = details: female, C57BL/6J, mouse, ip, 10 mg/kg
Description: All animal procedures were approved by the Sanford Burnham Prebys Medical Discovery Institute Institutional Animal Care and Use Committee and were performed according to the NIH guidelines for the Care and Use of Laboratory Animals. Adult female C57BL/6J mice were purchased from Jackson Laboratories and housed with free access to food and water on a 12 h light/dark cycle. Compounds were formulated in 5% DMSO, 10% Tween-80, and 85% H2O and injected intraperitoneally at 10 or 20 mg/kg. Blood samples were collected retro-orbitally at the indicated times and plasma was prepared by centrifugation. Livers were collected post mortem at the indicated times.
For quantification of compound, plasma samples were extracted with acetonitrile: water 4:1 with 0.1% formic acid containing indomethacin as an internal standard. Samples were centrifuged and the supernatants were diluted with acetonitrile: water and analyzed by LC-MS/MS using a Shimadzu Nexera X2 High-performance liquid chromatography (HPLC) (Shimadzu Scientific Instruments: Kyoto, Japan) coupled to an AB Sciex 6500 QTRAP (AB Sciex LLC: Toronto, Canada).

STK3 [2] = biological target: T1, STK3; assay: NanoBRET intracellular kinase assay, STK3; type: cell-based; details: NanoBRET, transfected HEK293 cells, 2 h; read-out: STK3: IC50
Description: as §2, §3

STK3 [3] = biological target: T1, STK3; assay: ADP-Glo kinase assay, STK3; type: biochemical; details: ADP-Glo, 50 μM ATP; read-out: STK3 IC50
Outline: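 Full-length recombinant human STK3 (50 ng) phosphorylated 250 μg/mL myelin basic protein, and full-length STK4 (50 ng) phosphorylated 300 μg/mL Axltide, both at 50 μM ATP; ADP formed detected by ADP-Glo. Three experiments, each in triplicate.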

[4] = tested on: phosphorylated MOB1 (Thr35) in HEK293 cells; assay: Western blot analysis of p-MOB1 in HEK293 cells; type: cell-based; details: 10 μM, 4 h, then H2O2 50 μM 2 h, vs DMSO
Description: Cells were harvested by pipetting, pelleted by centrifugation at 1400 rpm for 4 min, and lysed in RIPA buffer for 10 min at room temperature. The lysates were centrifuged at 12,000×g at room temperature (RT) for 10 min and the supernatants were recovered. Protein concentrations in the supernatants were determined using a BCA assay (Pierce/Thermo Scientific). Proteins were separated on NovexTM WedgeWellTM 4-20% Tris-Glycine Gels (Invitrogen; Carlsbad, CA, USA) and transferred to polyvinylidene difluoride (Trans-Blot® TurboTM Transfer Pack) membranes. […] Danvers. MA. USA). Blots were rinsed three times with TBST and then incubated in 5% nonfat milk containing horseradish peroxidase (HRP)-conjugated mouse anti-rabbit IgG secondary Ab (Cell Signaling Technology) for 1 h at RT. Blots were washed three times with TBST, developed using Pierce® ECL Western Blotting reagent, and imaged and analyzed using with ImageJ software. Quantitative data are expressed as the level of phosphorylated MOB1 normalized to total MOB1. To confirm that the cellular mechanism of action of our inhibitors was through inhibition of Hippo pathway signaling. […] Inhibition of STK3/4 in vitro and in vivo can produce decreased phosphorylation of the Hippo pathway adapter protein MOB1 at […].

Sequence of STK4 (Q13043 whole entry, the tested form may be a part): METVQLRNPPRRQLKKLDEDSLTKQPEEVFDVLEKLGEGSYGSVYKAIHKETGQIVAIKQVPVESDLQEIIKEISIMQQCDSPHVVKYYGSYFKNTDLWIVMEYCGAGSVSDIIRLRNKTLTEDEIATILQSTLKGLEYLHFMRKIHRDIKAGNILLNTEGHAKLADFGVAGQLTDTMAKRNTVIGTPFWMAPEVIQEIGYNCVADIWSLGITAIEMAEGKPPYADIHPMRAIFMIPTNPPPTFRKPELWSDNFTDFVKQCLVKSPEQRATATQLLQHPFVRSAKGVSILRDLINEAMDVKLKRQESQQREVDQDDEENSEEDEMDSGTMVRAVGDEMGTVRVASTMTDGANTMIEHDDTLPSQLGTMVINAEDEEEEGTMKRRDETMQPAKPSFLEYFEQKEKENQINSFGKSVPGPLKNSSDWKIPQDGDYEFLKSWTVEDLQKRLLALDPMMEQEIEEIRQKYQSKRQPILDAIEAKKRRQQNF
T1 sequence (Q13188 whole entry): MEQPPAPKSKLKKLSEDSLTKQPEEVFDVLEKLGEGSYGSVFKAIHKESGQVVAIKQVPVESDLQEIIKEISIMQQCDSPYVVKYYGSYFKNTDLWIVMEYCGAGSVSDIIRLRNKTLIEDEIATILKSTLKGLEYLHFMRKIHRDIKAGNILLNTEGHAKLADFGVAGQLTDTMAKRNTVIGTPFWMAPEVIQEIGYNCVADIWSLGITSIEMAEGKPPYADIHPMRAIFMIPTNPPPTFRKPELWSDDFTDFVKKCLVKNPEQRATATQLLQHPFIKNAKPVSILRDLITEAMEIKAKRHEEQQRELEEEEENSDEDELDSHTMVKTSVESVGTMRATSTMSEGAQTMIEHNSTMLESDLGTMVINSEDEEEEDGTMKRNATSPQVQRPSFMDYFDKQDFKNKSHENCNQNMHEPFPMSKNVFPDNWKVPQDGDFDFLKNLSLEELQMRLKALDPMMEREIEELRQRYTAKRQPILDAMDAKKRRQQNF

Structure (SMILES)	Permeability (Caco-2 cell)	Papp B→A (Caco-2 permeability)	IC50 (STK4)	ΔTm at 10 µM (STK3 [1])	AUC(0-t) (in vivo)	Cmax (in vivo)	Tmax (in vivo)	half-life (in vivo)	IC50 (STK3 [2])	IC50 (STK3 [3])	efflux ratio (Caco-2 permeability)	Papp (Caco-2 permeability; Caco-2, classification)	relative expression level of phosphorylated MOB1 [4]	Tm shift (STK3 [1])
Clc1cccc(-c2c[nH]c3ncnc(N4CCOCC4)c23)c1 [Compound 6, 4-(5-(3-Chlorophenyl)-7H-pyrrolo[2,3-d]pyrimidin-4-yl)morpholine]	High	35.7 ×10⁻⁶ cm/s	< 1000 nM	8.1 °C	–	–	–	–	–	–	–	–	–	–
NC(=O)c1cccc(-c2c[nH]c3ncnc(N4CCOCC4)c23)c1 [Compound 11, 3-(4-Morpholino-7H-pyrrolo[2,3-d]pyrimidin-5-yl)benzamide]	Medium to High	136 ×10⁻⁶ cm/s	–	7.4 °C	9.5 µM·h	10.9 µM	30 min	42 min	< 1000 nM	< 1000 nM	–	–	–	–
OC1CCN(c2ncnc3[nH]cc(-c4cccc(Cl)c4)c23)CC1 [Compound 16, 1-(5-(3-Chlorophenyl)-7H-pyrrolo[2,3-d]pyrimidin-4-yl)piperidin-4-ol]	High	294 ×10⁻⁶ cm/s	< 1000 nM	8 °C	4.3 µM·h	5.8 µM	15 min	594 min	< 1000 nM	< 1000 nM	1.3	> 10 ×10⁻⁶ cm/s	significant reduction	comparable results
Clc1cccc(-c2c[nH]c3nccc(N4CCOCC4)c23)c1 [Compound 23, 4-(3-(3-chlorophenyl)-1H-pyrrolo[2,3-b]pyridin-4-yl)morpholine]	High	7 ×10⁻⁶ cm/s	< 1000 nM	7.9 °C	–	–	–	–	< 1000 nM	< 1000 nM	1.6	–	significant reduction	> 7.4 °C
CC(=O)NC1CCN(c2ncnc3[nH]cc(-c4cccc(Cl)c4)c23)CC1 [Compound 105, N-(1-(5-(3-chlorophenyl)-7H-pyrrolo[2,3-d]pyrimidin-4-yl)piperidin-4-yl)acetamide]	–	–	< 1000 nM	–	8.1 µM·h	11.8 µM	15 min	318 min	< 1000 nM	< 1000 nM	–	–	significant reduction	–
